Test results taken from patent US12660819B2, “Herbicidal derivatives” (SYNGENTA CROP PROTECTION AG, priority 2020, dated 2026).

Key:
Type in all cases: in vivo
[1] = tested on: Echinochloa crus-galli (ECHCG); assay: Post-emergence Test (glasshouse, percentage damage to the plant); details: post-emergence spray, 1000 g/ha unless otherwise stated, evaluated after 13 days
Outline: (§1)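 Spray treatment of sown glasshouse pots at 1000 g/ha (default rate), vehicle acetone/water 50:50 plus 0.5% Tween 20. Read-out: percentage damage after 13 days, converted to a score where 5 denotes 81-100% and 1 denotes 0-20%.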

[2] = tested on: Ipomoea hederacea (IPOHE); assay: as above; details: post-emergence spray, 1000 g/ha unless otherwise stated, evaluated after 13 days
Outline: (§2)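 Sown pots; spray 1000 g/ha (unless stated) in acetone/water 50:50 + 0.5% Tween 20; glasshouse 24/16 °C, 14 h light, 65% RH; watered twice daily; % damage read at 13 days, scored 1–5.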

[3] = tested on: Amaranthus retoflexus (AMARE); assay: as above; details: post-emergence spray, 1000 g/ha unless otherwise stated, evaluated after 13 days
Outline: as §1

Setaria faberi (SETFA) [4] = assay: as above; details: post-emergence spray, 1000 g/ha unless otherwise stated, evaluated after 13 days
Outline: as §2

Zea mays (ZEAMX) [5] = assay: as above; details: post-emergence spray, 1000 g/ha unless otherwise stated, evaluated after 13 days
Outline: as §2

[6] = tested on: Abutilon theophrasti (ABUTH); assay: as above; details: post-emergence spray, 1000 g/ha unless otherwise stated, evaluated after 13 days
Outline: as §1

Zea mays (ZEAMX) [7] = assay: Pre-emergence Test (glasshouse, percentage damage to the plant); details: 1000 g/ha unless otherwise stated, five-point scale
[8] = tested on: Abutilon theophrasti (ABUTH); assay: as above; details: 1000 g/ha unless otherwise stated, five-point scale
[9] = tested on: Amaranthus retoflexus (AMARE); assay: as above; details: 1000 g/ha unless otherwise stated, five-point scale
[10] = tested on: Ipomoea hederacea (IPOHE); assay: as above; details: 1000 g/ha unless otherwise stated, five-point scale
Setaria faberi (SETFA) [11] = assay: as above; details: 1000 g/ha unless otherwise stated, five-point scale
[12] = tested on: Echinochloa crus-galli (ECHCG); assay: as above; details: 1000 g/ha unless otherwise stated, five-point scale

| SMILES | Post-emergence Test ECHCG, percentage damage to the plant (five-point scale) [1] | Post-emergence Test IPOHE, percentage damage to the plant (five-point scale) [2] | Post-emergence Test AMARE, percentage damage to the plant (five-point scale) [3] | Post-emergence Test SETFA, percentage damage to the plant (five-point scale) (Setaria faberi (SETFA) [4]) | Post-emergence Test ZEAMX, percentage damage to the plant (five-point scale) (Zea mays (ZEAMX) [5]) | Post-emergence Test ABUTH, percentage damage to the plant (five-point scale) [6] | percentage damage to the plant, ZEAMX (Zea mays (ZEAMX) [7]) | percentage damage to the plant, ABUTH [8] | percentage damage to the plant, AMARE [9] | percentage damage to the plant, IPOHE [10] | percentage damage to the plant, SETFA (Setaria faberi (SETFA) [11]) | percentage damage to the plant, ECHCG [12] |
| --- | --- | --- | --- | --- | --- | --- | --- | --- | --- | --- | --- | --- |
| CCOC(=O)c1c(-c2ccc(Br)c(F)c2)n(CC)c(C)c(-c2ccc(Cl)cc2)c1=O [Compound 139, ethyl 2-(4-bromo-3-fluoro-phenyl)-5-(4-chlorophenyl)-1-ethyl-6-methyl-4-oxo-pyridine-3-carboxylate] | 2 (2=21-40%) | 1 (1=0-20%) | 3 (3=41-60%) | 3 (3=41-60%) | 2 (2=21-40%) | 4 (4=61-80%) | 0 | 0 | 0 | 0 | 0 | 0 |
| CCn1c(C)c(-c2cccc(C#N)c2)c(=O)c(C(=O)O)c1-c1ccnc(Cl)c1 [Compound 141, 2-(2-chloro-4-pyridyl)-5-(3-cyanophenyl)-1-ethyl-6-methyl-4-oxo-pyridine-3-carboxylic acid] | 0 | 0 | 0 | 0 | 0 | 0 | 0 | 0 | 0 | 0 | 0 | 0 |
| CCn1c(C)c(-c2ccc(C#N)cc2)c(=O)c(C(=O)O)c1-c1ccnc(Cl)c1 [Compound 142, 2-(2-chloro-4-pyridyl)-5-(4-cyanophenyl)-1-ethyl-6-methyl-4-oxo-pyridine-3-carboxylic acid] | 3 (3=41-60%) | 2 (2=21-40%) | 0 | 2 (2=21-40%) | 1 (1=0-20%) | 1 (1=0-20%) | 0 | 0 | 0 | 0 | 1 (1=0-20%) | 1 (1=0-20%) |
| CCn1c(C)c(-c2ccc(Cl)cc2)c(=O)c(C(=O)O)c1-c1ccnc(Cl)c1 [Compound 143, 5-(4-chlorophenyl)-2-(2-chloro-4-pyridyl)-1-ethyl-6-methyl-4-oxo-pyridine-3-carboxylic acid] | 4 (4=61-80%) | 4 (4=61-80%) | 2 (2=21-40%) | 4 (4=61-80%) | 4 (4=61-80%) | 4 (4=61-80%) | 3 (3=41-60%) | 3 (3=41-60%) | 1 (1=0-20%) | 1 (1=0-20%) | 5 (5=81-100%) | 5 (5=81-100%) |
| CCn1c(C)c(-c2cccc(Cl)c2)c(=O)c(C(=O)O)c1-c1ccnc(Cl)c1 [Compound 144, 5-(3-chlorophenyl)-2-(2-chloro-4-pyridyl)-1-ethyl-6-methyl-4-oxo-pyridine-3-carboxylic acid] | 2 (2=21-40%) | 2 (2=21-40%) | 2 (2=21-40%) | 3 (3=41-60%) | 2 (2=21-40%) | 2 (2=21-40%) | 2 (2=21-40%) | 1 (1=0-20%) | 1 (1=0-20%) | 2 (2=21-40%) | 4 (4=61-80%) | 4 (4=61-80%) |
| CCn1c(C)c(-c2ccc(C#N)cc2)c(=O)c(C(=O)O)c1-c1ccc(Cl)c(Cl)n1 [Compound 146, 5-(4-cyanophenyl)-2-(5,6-dichloro-2-pyridyl)-1-ethyl-6-methyl-4-oxo-oyridine-3-carboxylic acid] | 4 (4=61-80%) | 4 (4=61-80%) | 2 (2=21-40%) | 4 (4=61-80%) | 3 (3=41-60%) | 3 (3=41-60%) | 1 (1=0-20%) | 1 (1=0-20%) | 1 (1=0-20%) | 0 | 4 (4=61-80%) | 4 (4=61-80%) |
| CCn1c(C)c(-c2cccc(C#N)c2)c(=O)c(C(=O)O)c1-c1ccc(Cl)c(Cl)n1 [Compound 147, 5-(3-cyanophenyl)-2-(5,6-dichloro-2-pyridyl)-1-ethyl-6-methyl-4-oxo-pyridine-3-carboxylic acid] | 2 (2=21-40%) | 2 (2=21-40%) | 0 | 2 (2=21-40%) | 2 (2=21-40%) | 2 (2=21-40%) | 0 | 0 | 0 | 0 | 0 | 0 |
| CCn1c(C)c(-c2cccc(Cl)c2)c(=O)c(C(=O)O)c1-c1ccc(Cl)c(Cl)n1 [Compound 149, 5-(3-chlorophenyl)-2-(5,6-dichloro-2-pyridyl)-1-ethyl-6-methyl-4-oxo-pyridine-3-carboxylic acid] | 0 | 2 (2=21-40%) | 1 (1=0-20%) | 0 | 1 (1=0-20%) | 1 (1=0-20%) | 0 | 0 | 0 | 0 | 0 | 0 |
